According to US20210186972A1, “FORMULATIONS AND METHODS FOR THE PREVENTION AND TREATMENT OF TUMOR METASTASIS AND TUMORIGENESIS” (THE UNITED STATES OF AMERICA, AS REPRESENTED BY THE …, priority 2018, published 2021):

Columns and labels:
[1] = design: species or system NSG PANC1 mice; details: NSG (Nod/IL2gamma null), mouse, in vivo, po, 10 mg/kg, 1 h
PANC1 cells = experiment: 24-well Transwell MATRIGEL invasion assay, PANC1; format: cell-based, human; details: 0.6 μM, within 24 hours
Protocol: FIG. 3 is a bar graph showing that metarrestin inhibits MATRIGEL gelatinous protein mixture (BD Biosciences, Franklin Lakes, N.J.) invasion at below micromolar concentrations (0.6 μM) within 24 hours of treatment (* p<0.05 and ** p<0.01 in comparison to DMSO [control]). The invasion (%) is on the y-axis and the metarrestin [microM] is on the x-axis. The cell line PC3M is shown in white bars and the cell line PANC1 (human pancreas) is shown in black bars.
24-well Transwell Permeable MATRIGEL gelatinous protein mixture Invasion assay: The effect of metarrestin on invasion activity of PANC1 and PC3M cells was measured using 24-well Transwell Permeable MATRIGEL gelatinous protein mixture Invasion Chambers with 8 μm pores (Corning, Cat #354480). Membranes were rehydrated with 500 μL of serum-free DMEM (Thermo Fisher, Cat #11965084) both inside the chamber and inside the well and incubated for two hours at 37° C., 5% CO2. Cells were detached, washed, resuspended in serum-free DMEM, counted, and diluted to a final concentration of 1×10^5 cells/mL in six separate 15 mL conical tubes. […] 750 μL of DMEM plus 10% FBS acting as a chemoattractant were placed in the basal wells. Plates were incubated at 37° C., 5% CO2 for 24 hours. […]

PC3M xenograft mice = experiment: PC3M xenograft prostate cancer model; format: in vivo
Protocol: Metarrestin was tested in PC3M xenograft mice to determine whether metarrestin's anti-metastasis activity (observed in the NSG PANC1 mice and in vitro pan-cancer PNC suppression) translates into anti-metastasis activity in additional cancer models. Two weeks after subcutaneous implantation of PC3M cells, mice were started on 5 mg/kg or 25 mg/kg metarrestin or vehicle by daily IP injection for 4 additional weeks. Tumor progression was tracked by both in vivo imaging systems (“IVIS”) spectroscopy and tumor volume. Metastasis to the lungs was evaluated ex vivo through IVIS spectroscopy and by histopathology at the experimental endpoint. […] To evaluate the effect of metarrestin on a malignant xenograft considered closest to in vivo conditions, a patient-derived breast cancer xenotransplantation model (PDX) was used. Metastatic breast cancer cells harvested from the pleural fluid of a stage IV ductal breast cancer patient were inoculated into mice, and third generation mouse-passaged tumors were transplanted into the mammary fat pad of NOD.Cg-Prkdc^scid Il2rg^tm1Sug/JicTac mice. Treatment with metarrestin started after the tumors reached 150-200 mm^3. Metarrestin (25 mg/kg) or vehicle was administered daily by IP injection for 4 weeks with a 5-day on and 2-day off schedule. Tumor size and total body weight were measured twice a week, and tumor weight was measured at experimental end-point.
Prostate cancer model: Mice were implanted in the flank with 3×10^6 human PC-3M-luc-C6 […] tumor cells (Caliper Life Sciences) and split into 4 groups of 10 mice. Dosing with 5 or 25 mg/kg drug or vehicle alone (negative control) was initiated after 2 weeks and continued until the experimental endpoint, 6 weeks after implantation. Primary tumor size (measured with calipers), live tumor cell content (measured by biophotonic imaging), and total body weight were determined each week. At the endpoint, animals were euthanized, metastatic organs removed, and metastases quantitated by biophotonic imaging of the organs.

With `N=c1c2c(-c3ccccc3)c(-c3ccccc3)n(Cc3ccccc3)c2ncn1[C@H]1CC[C@H](O)CC1` [metarrestin] the “Concentration in primary tumors above the IC90 of 0.75 μM” value [1] was “more than 10 fold”, the “Invasion of PANC1 cells” value (PANC1 cells) was “effectively blocked the invasion” and the “Growth of primary tumor xenografts” value (PC3M xenograft mice; 25 mg/kg daily IP for 4 weeks) was “modestly reduced growth”. The Lung metastasis (PC3M xenograft mice; 25 mg/kg daily IP for 4 weeks, P<0.05 vs vehicle) was “decreased development of lung metastasis” and the “Body weight and behavior” value (PC3M xenograft mice; daily IP for 4 weeks) was “not significantly different”.
